Patent US11992620B2, “Methods of reducing the risk of mortality associated with a medical treatment” (Mallinckrodt Hospital Products IP Limited, priority 2013, dated 2024)
Where two headings read alike, the source gives them in different places.

What was measured:
[1] = tested on: pre-term neonates; settings: 5 ppm while intubated, cited from earlier work
[2] = tested on: pre-term neonates; settings: 5 ppm increased to 10 ppm if no response; mean 3 days therapy; cited from earlier work
[3] = tested on: experimental BPD in preterm lambs; settings: prolonged therapy, cited from earlier work
[4] = tested on: pre-term neonates; settings: 10 ppm for 1 day, then 5 ppm for 6 days, cited from earlier work
[5] = tested on: pre-term neonates; settings: 5 ppm for 7 days, cited from earlier work
[6] = tested on: pre-term neonates; settings: 5 ppm for 7-21 days, cited from earlier work
[7] = tested on: pre-term neonates; settings: cited from earlier work
[8] = tested on: preterm neonates less than 30 weeks gestational age and less than 1250 grams; experiment: BPD-301 study: multi-center, double blind, placebo-controlled randomized clinical trial of inhaled nitric oxide for prevention of BPD; assay type: in vivo, human; set-up: Mortality by race, % / ALIVE No (mortality rate), %: concentration or dose not given beside the values; settings: for Mortality by race, %: INO N = 229
Protocol: A multi-center, double blind, placebo-controlled randomized clinical trial designated the “BPD-301” study was conducted to examine the efficacy of inhaled nitric oxide in preventing BPD in preterm neonates less than 30 weeks gestational age and less than 1250 grams who required mechanical ventilation or positive pressure support. Patients were identified as (1) American Indian or Alaska Native, (2) Asian, (3) Black, (4) Hispanic, (5) White, or (6) Other. Continuous inhaled nitric oxide or placebo gas administration into the inspiratory limb of the ventilator circuit in the mechanically ventilated subject was accomplished using an INOvent® delivery device. The placebo group received the same dose of nitrogen that the active or treatment group received of inhaled nitric oxide. Administration of inhaled nitric oxide or placebo was begun at a point during the window of time 5 to 14 days after the subject's birth and continued for 24 days thereafter. The starting dose was 20 ppm. A dose reduction schedule was followed: after 72 hours of treatment at 20 ppm, reducing to 10 ppm, and then reducing to 5 ppm on day 10. If an infant was extubated before 24 days, therapy was continued via nasal continuous positive airway pressure or nasal cannula to complete the protocol. 451 infants less than 30 weeks of gestation age were included in this trial, of which 449 were randomized and 2 were not randomized. There was a 1:1 randomization with 220 infants treated with placebo and 229 treated with inhaled nitric oxide.
In order to enroll in the BPD 301 study and receive inhaled nitric oxide for the prevention of BPD, a pre-term neonate could not have already previously been administered inhaled nitric oxide.
Additionally, if the pre-term neonate had undiagnosed pulmonary hypertension and happened to be placed on placebo (nitrogen) for purposes of the BPD-301 study, the pre-term neonate's hypoxic respiratory failure would have worsened and would have likely required immediate treatment with commercial inhaled nitric oxide. This administration of commercial inhaled nitric oxide would have failed the subject from the trial, both reducing the power of the trial and eliminating the subject from the study analysis.
A synopsis of the BPD-301 protocol follows.
The placebo and treatment groups were matched for the following characteristics: gestational age, age at the start of treatment, sex, length at birth, weight, head circumference, respiratory severity scores, apgar scores, and physical exam results.

[9] = median treatment duration 14 days
[10] = FEMALE N = 64, inhaled nitric oxide-treated white infants less than 27 weeks gestational age

SMILES: [N]=O [inhaled nitric oxide, nitric oxide]
- IVH/PVL [1]: 17.5%
- CLD or death [1, 9]: 71.6%
- CLD or death vs placebo [1, 9]: no difference
- reduction in IVH/PVL ([1]; vs placebo): 27%
- IVH vs placebo [2]: no difference
- death or BPD vs placebo [2]: no difference
- lung vascular growth ([3]; after VEGF inhibition): improves lung vascular growth
- alveolarization ([3]; experimental BPD in preterm lambs): improves alveolarization
- CLD/death [4]: 48.6%
- severe IVH/PVL [4]: 12.4%
- reduction in "abnormal or delayed" development ([4]; p=0.01): 47%
- reduction in CLD/death ([4]; vs placebo, p=0.03): 24%
- reduction in severe IVH/PVL ([4]; vs placebo, p=0.04): 47%
- death or BPD [5]: 77%
- severe intraventricular haemorrhage (IVH) [5]: no increase
- reduction in death or BPD ([5]; vs placebo, p=0.14): 15.4%
- survival without BPD at 36 weeks postmenstrual age [6]: 65%
- survival without BPD at 36 weeks postmenstrual age vs placebo ([6]; p=0.73): no difference
- survival without CLD at 36 weeks postmenstrual age ([7]; 20 ppm for 2 to 4 days, then stepped-down weekly, 24 days): 43.9%
- improvement in survival without CLD at 36 weeks postmenstrual age ([7]; 20 ppm for 2 to 4 days, then stepped-down weekly, 24 days, vs placebo, p=0.042): 20%
- discharged or off all ventilator support ([7]; 40 weeks, p=0.01): 65%
- discharged or off all ventilator support ([7]; 44 weeks, p=0.03): 82%
- Mortality by race, % ([8]; ALL, p=0.436 vs placebo, Fisher's exact test): 11.35%
- Mortality by race, % ([8]; American Indian or Alaska Native): 0.00%
- Mortality by race, % ([8]; Asian): 0.00%
- Mortality by race, % ([8]; Black): 2.62%
- ALIVE No (mortality rate), % [8, 10]: 4.7%
- ALIVE Yes, % [8, 10]: 95.3%
- Mortality by race, % ([8]; Hispanic): 1.31%
- ALIVE No (mortality rate), % ([8]; MALE N = 56, inhaled nitric oxide-treated white infants less than 27 weeks gestational age): 21.4%
- ALIVE Yes, % ([8]; MALE N = 56, inhaled nitric oxide-treated white infants less than 27 weeks gestational age, p=0.011 male vs female): 78.6%
- Mortality by race, % ([8]; Native Hawaiian or other Pacific Islander): 0.00%
- Mortality by race, % ([8]; Other): 0.87%
- Mortality by race, % ([8]; White): 6.55%
- difference in mortality between treatment and placebo groups ([8]; any other racial category (than white)): no similar difference
- mortality rate, inhaled nitric oxide vs placebo group ([8]; overall trial population, Fisher's exact test p=0.436): not significantly different
- mortality rate vs placebo group ([8]; white population): higher mortality rate
- ALIVE No (deaths), % ([8]; white preterm infants less than 27 weeks gestational age, INO N = 120): 12.5%
- ALIVE Yes, % ([8]; white preterm infants less than 27 weeks gestational age, INO N = 120, p=0.010 vs placebo): 87.5%
- risk of death as compared to placebo ([8]; white, male, preterm infants of less than 27 weeks gestational age treated for prevention of BPD): significant risk of death
